Laboratory results from ChEMBL document CHEMBL5137134, “Developing the Natural Prenylflavone Artocarpin from Artocarpus hirsutus as a Potential Lead Targeting Pathogenic, Multidrug-Resistant Staphylococcus aureus, Persisters and Biofilms with No Detectable Resistance” (J Nat Prod, 2022).
Values after ≈ are worked out from the molar mass of the structure shown. Active and inactive are the calls of the source. The calls are words filed in the database; no cut-off is given here. Peptide text beside a SMILES is read from it.

Columns and labels:
[1] = tested on: Escherichia coli; assay: Antibacterial activity against Escherichia coli ATCC 25922 assessed as reduction in bacterial growth incubated for 16 to 18 hrs by broth microdilution method; format: functional; details: time 16-18 hrs
[2] = tested on: Acinetobacter baumannii; assay: Antibacterial activity against Acinetobacter baumannii BAA 1605 assessed as reduction in bacterial growth incubated for 16 to 18 hrs by broth microdilution method; format: functional; details: time 16-18 hrs
[3] = tested on: Staphylococcus aureus; assay: Post antibiotic effect against Staphylococcus aureus ATCC 29213 assessed as time required for 1 log10 increase in CFU at 1 time MIC incubated for 1 hr followed by replacement with drug free medium and measured every 1 hr (reference value: 2 hrs); format: functional
[4] = tested on: Escherichia coli; assay: Antibacterial activity against Escherichia coli ATCC 25922 assessed as reduction in bacterial growth incubated for 16 to 18 hrs in presence of PMBN by broth microdilution method; format: functional; details: time 16-18 hrs
[5] = tested on: Acinetobacter baumannii; assay: Antibacterial activity against Acinetobacter baumannii BAA 1605 assessed as reduction in bacterial growth incubated for 16 to 18 hrs in presence of PMBN by broth microdilution method; format: functional; details: time 16-18 hrs
[6] = tested on: Staphylococcus aureus; assay: Post antibiotic effect against Staphylococcus aureus ATCC 29213 at 10 times MIC incubated for 1 hr followed by replacement with drug free medium and measured every 1 hr (reference value: 0 hr); format: functional
[7] = tested on: Staphylococcus aureus; assay: Post antibiotic effect against Staphylococcus aureus ATCC 29213 at 1 time MIC incubated for 1 hr followed by replacement with drug free medium and measured every 1 hr (reference value: 0 hr); format: functional
[8] = tested on: Staphylococcus aureus; assay: Post antibiotic effect against Staphylococcus aureus ATCC 29213 assessed as time required for 1 log10 increase in CFU at 10 times MIC incubated for 1 hr followed by replacement with drug free medium and measured every 1 hr (reference value: 2 hrs); format: functional
[9] = tested on: Staphylococcus aureus; assay: Antibiofilm activity against Staphylococcus aureus ATCC 29213 assessed as reduction in preformed bacterial biofilm mass at 1 time MIC incubated for 24 hrs by crystal violet staining based microtiter plate reader assay; format: functional; parameters: scale not given: the % may be the effect or the level left
[10] = tested on: Staphylococcus aureus; assay: Synergistic antibacterial activity against Staphylococcus aureus ATCC 29213 assessed as reduction in bacterial growth incubated for 24 hrs in presence of artocarpin by checkerboard method; format: functional
[11] = tested on: Staphylococcus aureus; assay: microbe, parasite or virus in culture; details: ATCC 29213
Description: Antibacterial activity against Staphylococcus aureus ATCC 29213 assessed as reduction in bacterial growth incubated for 16 to 18 hrs by broth microdilution method

[12] = tested on: Staphylococcus aureus; assay: Bactericidal activity against Staphylococcus aureus ATCC 29213 assessed as increase in extracellular ATP level at 2.5 times MIC after 1 hr by ATP bioluminescence assay; format: functional, organism-based
[13] = tested on: Staphylococcus aureus; assay: Bactericidal activity against Staphylococcus aureus ATCC 29213 assessed as decrease in intracellular ATP level at 2.5 times MIC after 1 hr by ATP bioluminescence assay; format: functional, organism-based
[14] = tested on: Staphylococcus aureus; assay: Antibacterial activity against Staphylococcus aureus ATCC 29213 at 1 time MIC after 24 hrs by time kill assay; format: functional
[15] = Induction of resistance in Staphylococcus aureus ATCC 29213 assessed as increase in MIC treated over 35 serial passages by resistant development assay; format: functional
[16] = tested on: Pseudomonas aeruginosa; assay: Antibacterial activity against Pseudomonas aeruginosa ATCC 27853 assessed as reduction in bacterial growth incubated for 16 to 18 hrs by broth microdilution method; format: functional; details: time 16-18 hrs
[17] = tested on: Staphylococcus aureus; assay: Antibacterial activity against Staphylococcus aureus ATCC 29213 infected in mouse J774A.1 cells assessed as reduction in intracellular bacterial cells at 5 times MIC incubated for 24 hrs followed by re-plating on TSA plate and measured after 18 to 24 hrs; format: functional
[18] = tested on: Klebsiella pneumoniae; assay: Antibacterial activity against Klebsiella pneumoniae BAA 1705 assessed as reduction in bacterial growth incubated for 16 to 18 hrs by broth microdilution method; format: functional; details: time 16-18 hrs
[19] = tested on: Enterococcus; assay: Antibacterial activity against Enterococcus NR 31903 assessed as reduction in bacterial growth incubated for 16 to 18 hrs by broth microdilution method; format: functional; details: time 16-18 hrs
[20] = tested on: Staphylococcus aureus; assay: Antibacterial activity against Staphylococcus aureus ATCC 29213 infected in Swiss mouse skin infection model assessed as reduction in skin bacterial load at 2 % dose administered twice daily for 4 days; format: functional; details: time 4 day

Molecule `CC[C@H](C)CCCCC(=O)N[C@@H](CCN)C(=O)N[C@H](C(=O)N[C@@H](CCN)C(=O)N[C@H]1CCNC(=O)[C@H]([C@@H](C)O)NC(=O)[C@H](CCN)NC(=O)[C@H](CCN)NC(=O)[C@H](CC(C)C)NC(=O)[C@@H](Cc2ccccc2)NC(=O)[C@H](CCN)NC1=O)[C@@H](C)O` (HELM PEPTIDE1{[CC[C@H](C)CCCCC(=O)[*:2]].[Dab].T.[Dab].[Dab].[Dab].[dF].L.[Dab].[Dab].T}$PEPTIDE1,PEPTIDE1,5:R3-11:R2$$$V2.0) has an MIC [1] greater than 64 µg/mL and an MIC [2] greater than 64 µg/mL.

`CN[C@H](CC(C)C)C(=O)N[C@H]1C(=O)N[C@@H](CC(N)=O)C(=O)N[C@H]2C(=O)N[C@H]3C(=O)N[C@H](C(=O)N[C@H](C(=O)O)c4cc(O)cc(O)c4-c4cc3ccc4O)[C@H](O)c3ccc(c(Cl)c3)Oc3cc2cc(c3O[C@@H]2O[C@H](CO)[C@@H](O)[C@H](O)[C@H]2O[C@H]2C[C@](C)(N)[C@H](O)[C@H](C)O2)Oc2ccc(cc2Cl)[C@H]1O` [VANCOMYCIN] showed an MIC [1] of 512 µg/mL (≈ 353 µM), a Time [3] of 3 h and an MIC [4] of 128 µg/mL. The MIC [5] was 64 µg/mL, the PAE [6] was 1.5 h and the PAE [7] was 1 h. The Time [8] was 3.5 h, the MIC [2] was 256 µg/mL (≈ 177 µM) and the Activity [9] was 4%.

Molecule `CO[C@H]1/C=C/O[C@@]2(C)Oc3c(C)c(O)c4c(O)c(c(/C=N/N5CCN(C)CC5)c(O)c4c3C2=O)NC(=O)/C(C)=C\C=C\[C@H](C)[C@H](O)[C@@H](C)[C@@H](O)[C@@H](C)[C@H](OC(C)=O)[C@@H]1C` [RIFAMPIN] has an MIC [1] of 8 µg/mL (≈ 9.72 µM), an MIC [10] of 0.0078 µg/mL and an MIC [4] of 0.06 µg/mL. It also gave an MIC [5] of 0.03 µg/mL, an MIC [11] of 0.0078 µg/mL (≈ 0.00948 µM) and an MIC [2] of 2 µg/mL (≈ 2.43 µM).

In the case of `CC[C@H](C)[C@H](NC(=O)CN)C(=O)NCC(=O)N[C@@H](C)C(=O)N[C@H](C(=O)N[C@@H](CC(C)C)C(=O)N[C@@H](CCCCN)C(=O)N[C@H](C(=O)N[C@@H](CC(C)C)C(=O)N[C@H](C(=O)N[C@H](C(=O)NCC(=O)N[C@@H](CC(C)C)C(=O)N1CCC[C@H]1C(=O)N[C@@H](C)C(=O)N[C@@H](CC(C)C)C(=O)N[C@H](C(=O)N[C@@H](CO)C(=O)N[C@@H](Cc1c[nH]c2ccccc12)C(=O)N[C@H](C(=O)N[C@@H](CCCCN)C(=O)N[C@@H](CCCNC(=N)N)C(=O)N[C@@H](CCCCN)C(=O)N[C@@H](CCCNC(=N)N)C(=O)N[C@@H](CCC(N)=O)C(=O)N[C@@H](CCC(N)=O)C(N)=O)[C@@H](C)CC)[C@@H](C)CC)[C@@H](C)O)[C@@H](C)O)C(C)C)C(C)C`, the Activity [12] is reported as “Active” and the Activity [13] is reported as “Active”.

`CCCCCCCCCC(=O)N[C@@H](Cc1c[nH]c2ccccc12)C(=O)N[C@H](CC(N)=O)C(=O)N[C@@H](CC(=O)O)C(=O)N[C@@H]1C(=O)NCC(=O)N[C@@H](CCCN)C(=O)N[C@@H](CC(=O)O)C(=O)N[C@H](C)C(=O)N[C@@H](CC(=O)O)C(=O)NCC(=O)N[C@H](CO)C(=O)N[C@@H]([C@H](C)CC(=O)O)C(=O)N[C@@H](CC(=O)c2ccccc2N)C(=O)O[C@@H]1C` gave an MIC [10] of 0.5 µg/mL and an MIC [11] of 1 µg/mL (≈ 0.617 µM).

`CC(=O)NC[C@H]1CN(c2ccc(N3CCOCC3)c(F)c2)C(=O)O1` [LINEZOLID] showed an MIC [10] of 1 µg/mL and an Activity [14] of 1.6 log10CFU/ml.

Molecule `CN(C)c1ccc(O)c2c1C[C@H]1C[C@H]3[C@H](N(C)C)C(O)=C(C(N)=O)C(=O)[C@@]3(O)C(O)=C1C2=O` [MINOCYCLINE] has an MIC [10] of 0.125 µg/mL and an MIC [11] of 0.25 µg/mL (≈ 0.546 µM).

With `C[C@H]1COc2c(N3CCN(C)CC3)c(F)cc3c(=O)c(C(=O)O)cn1c23.C[C@H]1COc2c(N3CCN(C)CC3)c(F)cc3c(=O)c(C(=O)O)cn1c23.O` [LEVOFLOXACIN] the Time [3] was 2.5 h, the MIC [10] was 0.25 µg/mL and the MIC [15] was 32 µg/mL. It also gave an MIC [16] of 0.5 µg/mL, an Activity [17] of 0.45 log10CFU/ml and a PAE [6] of 1.5 h. For the same molecule, the MIC [11] was 0.125 µg/mL, the PAE [7] was 0.5 h and the Time [8] was 3.5 h. For the same molecule, the MIC [18] was 64 µg/mL, the Activity [9] was 15% and the MIC [19] was greater than 64 µg/mL.

GENTAMICIN gave an MIC [10] of 0.06 µg/mL.

Molecule `CC(C)(O/N=C(\C(=O)N[C@@H]1C(=O)N2C(C(=O)[O-])=C(C[n+]3ccccc3)CS[C@H]12)c1csc(N)n1)C(=O)O` [CEFTAZIDIME] has an MIC [10] of 16 µg/mL and an MIC [11] of 16 µg/mL (≈ 29.3 µM).

In the case of `C[C@@H](O)[C@H]1C(=O)N2C(C(=O)O)=C(S[C@@H]3CN[C@H](C(=O)N(C)C)C3)[C@H](C)[C@H]12` [MEROPENEM], the MIC [10] is reported as 2 µg/mL and the MIC [11] is reported as 1 µg/mL (≈ 2.61 µM).

Molecule `CC(=O)O[C@H]1C[C@@]2(C)[C@@H](C[C@@H](O)[C@H]3[C@@]4(C)CC[C@@H](O)[C@@H](C)[C@@H]4CC[C@@]32C)/C1=C(\CCC=C(C)C)C(=O)O` [FUSIDIC ACID] has an Activity [20] of 1.8 log10CFU/g.
